From the CheMixHub viscosity set

Test: xn = mol fraction of the nth substance listed

Oc1ccccc1Cl + CCCCN(CCCC)CCCC
298.16 K, 101 kPa
Details	viscosity [mPa·s]
x1 = 0.5022	21.91
x1 = 0.5499	34.61
x1 = 0.6012	82.36
x1 = 0.6516	192.6
x1 = 0.7025	410.1
x1 = 0.7266	475.5
x1 = 0.7554	427.4
x1 = 0.7826	289.1
x1 = 0.8001	191.3
x1 = 0.812	134.4
x1 = 0.8523	63.53
x1 = 0.8708	39.93
x1 = 0.8974	19.56
x1 = 0.9113	9.963
x1 = 0.9432	4.507
x1 = 0.9687	2.537
x2 = 0.004631	2.323

CCCN + CCCCCCCO
viscosity [mPa·s], 101.33 kPa
Details	x1 = 0.0918	x1 = 0.1876	x1 = 0.2917	x1 = 0.3927	x1 = 0.4818	x1 = 0.6142	x1 = 0.7167	x1 = 0.7997	x1 = 0.9056
303.15 K	4.047	3.35	2.669	2.114	1.687	1.177	0.8748	0.678	0.4813
313.15 K	3.046	2.522	2.023	1.593	1.28	0.9105	0.6933	0.5549	0.4105

CCCCOC(C)=O + CCC(C)O
viscosity [mPa·s], 100 kPa
Details	x1 = 0.081	x1 = 0.16	x1 = 0.24	x1 = 0.35	x1 = 0.44	x1 = 0.5598	x1 = 0.6499	x1 = 0.74	x1 = 0.85	x1 = 0.94
293.15 K	2.444	1.639	1.195	0.976	0.907	0.859	0.827	0.794	0.757	0.736
298.15 K	2.041	1.423	1.045	0.87	0.805	0.768	0.746	0.732	0.703	0.681
303.15 K	1.797	1.267	0.941	0.767	0.713	0.692	0.677	0.663	0.649	0.636
308.15 K	1.523	1.084	0.844	0.692	0.644	0.618	0.604	0.597	0.592	0.584
313.15 K	1.28	0.951	0.756	0.633	0.585	0.555	0.544	0.541	0.546	0.542
318.15 K	1.111	0.828	0.681	0.575	0.531	0.506	0.5	0.5	0.502	0.501
323.15 K	0.963	0.748	0.619	0.535	0.497	0.477	0.466	0.46	0.455	0.457
